Data as given in US8673548B2, “Genes and polypeptides relating to breast cancers” (Oncotherapy Science, Inc., priority 2006, dated 2014).

Assays:
Type in all cases: cell-based, human
BT-549 and BT-474 cells = assay: colony-formation and MTT assays, A7322 siRNA
Procedure: (§1) Human breast cancer cells-lines, BT-549 and BT-474 (for A7322) and T47D and HBC4 (for F3374), were plated onto 10-cm dishes (2×10^6 cells/dish) and transfected with 8 μg each of psiU6BX3.0-Mock (without insertion), psiU6BX3.0-A7322 (#2, #3 and a mismatch construct (m#3) including three-base substitutions in #3), psiU6BX3.0-F3374V1 (#1, and #4), psiU6BX3.0-EGFP, psiU6BX3.0-SCR using FuGENE6 reagent (Roche) as described above. Inventors selected the psiU6BX3.0-introduced BT-549, BT-474, T47D and HBC4, with medium containing 0.2 mg/ml or 1 mg/ml of neomycin (Geneticin, Gibco BRL, Carlsbad, Calif.), respectively. […] To evaluate an effect of siRNAs, total RNAs were extracted from the cells at 4-day incubation with neomycin, and then the knockdown effect of siRNAs was examined by a semi-quantitative RT-PCR using specific primer sets;
Transfectants expressing siRNA were grown for 4 weeks in selective media containing neomycin, then fixed with 4% paraformaldehyde for 15 min before staining with Giemsa's solution (Merck, Whitehouse Station, N.J.) to assess colony number. To quantify cell viability, MTT assays were performed with cell counting kit-8 4 days after transfection according to manufacturer's recommendation (Wako, Osaka, Japan). Absorbance at 570 nm wavelength was measured with a Microplate Reader 550 (Bio-Rad). […]

A7322 = assay: semi-quantitative RT-PCR of A7322 after siRNA vector transfection; conditions: BT-549 and BT-474 cells; compared with psiU6BX-Mock
Procedure: Inventors established a vector-based RNAi (RNA interference) expression system using psiU6BX3.0 siRNA expression vector as described previously (Taniuchi K et al. Cancer Res., 65:105-112. 2005.). siRNA expression vectors against A7322 (psiU6BX3.0-A7322), F3374V1 (psiU6BX3.0-F3374V1), EGFP (psiU6BX3.0-EGFP), Scramble (psiU6BX3.0-SCR) and Mock (psiU6BX3.0-Mock) were prepared by cloning of double-stranded oligonucleotides into the BbsI site of the psiU6BX3.0 vector. The target sequences of synthetic oligonucleotides for siRNA were as follows;
as §1

CDK1 = assay: immunoblotting of G2/M-arrested cells incubated with CDK1 inhibitor; conditions: T47D
Procedure: To detect expression of PBK/TOPK (WT, T9A, KD, T9A/KD), p47, p97 or PP1α proteins, immunoblottings were performed according to previous report (Park et al., 2006). Briefly, cells were lysed in lysis buffer (50 mM Tris-HCl, pH 8.0/150 mM NaCl/0.5% NP-40) followed by homogenization and incubation on ice for 30 minutes, only soluble fractions were separated from cell debris by centrifugation. After SDS-PAGE (sodium dodecyl sulfate polyacrylamide gel electrophoresis), the proteins were blotted onto nitrocellulose membrane (GE Healthcare, Buckinghamshire, United Kingdom), incubated with the corresponding antibodies, and visualized using an ECL detection kit (GE Healthcare). To collect the mitotic cells, the present inventors employed a “mitotic shake-off” method as described previously (Dechat T et al., EMBO J. 17: 4887-902 (1998)). A protein-protein interaction was examined by immunoprecipitation after co-transfection with above described constructs of interest to COS-7 cells using the FuGene6 reagent (Roche) as described previously (Shimo A et al., Cancer Sci 98: 174-81 (2007)) except using an anti-6×His antibody (Santa Cruz Biotechnology) to precipitated p97/VCP-myc-6×His protein. After washing 5 times with lysis buffer, immunocomplexes were loaded on a SDS-PAGE gel and immunoblotted as described above.
An active recombinant PBK/TOPK protein was purchased from Invitrogen (Carlsbad, Calif.), and recombinant proteins of Histone H3 and Protein Phosohatase 1-alpha (PP1α were from Upstate Biotechnology (Lake Placidy, N.Y.). Cyclin-dependent kinase-1 (CDK1 kinase) (cdc2/cyclin B1) and lambda protein phosphatase (λPPase) were from New England Biolabs (Ipswich, Mass.). The glutathione S-transferase (GST)-tagged PBK/TOPK (GST-PBK/TOPK) protein was expressed in Escherichia coli and purified with Glutathione Sepharose 4B beads (GE Heath care, Buckinghamshire, United Kingdom) according to the previous report (Lin et al., 2007). […]

F3374 = assay: western blot of F3374 after siF3374 oligonucleotide; conditions: HBC4 cells
Description: (§2) Furthermore, the present inventors used siRNA oligonucleotides (Sigma Aldrich Japan KK, Tokyo, Japan) due to its high transfection efficiency to further verify the knockdown effects of F3374 and AURKB on cell morphology. The sequences targeting each gene were as follows:
(§3) T47D or HBC4 cells (2.5×10^5 cells in 10 cm dish for FACS analysis) cells were transfected with those siRNAs using Lipofectamin RNAiMAX (Invitrogen) in Optimem (Invitrogen) medium according to the instructions of manufacture. Forty-eight hours after transfection, morphological changes of the HBC4 cells were examined by microscopy and by immunocytochemical staining analysis using Alexa Fluor 594 Phalloidin (Molecular Probe).

HBC4 cells = assay: microscopy of morphological changes after siF3374; conditions: vs siEGFP
Description: as §2, §3

PBK/TOPK [1] = assay: western blot of PBK/TOPK phosphorylation after okadaic acid; conditions: T47D
Procedure: Wild-type and kinase-dead PBK/TOPK proteins were exogenously expressed by transfection into T47D cell using pCAGGS-nHA expression vector. Whole cell lysates were harvested 48 h after the transfection. The cells were lysed in the cell lysis buffer as described above. The following procedures are the same as described above except that anti-HA rat high-affinity antibody (Roche) was used for the antibody reaction. […] The following procedures were also carried out as described above. Phosphorylated protein was confirmed by treatment with 1 U of lambda protein phosphatase (New England Biolabs, Ipswich, Mass.) at 30° C. for 2 h.

T47D cells = assay: FACS cell cycle analysis after nocodazole
Procedure: For PBK/TOPK, the cell cycle of cultured T47D breast cancer cells were synchronized via the treatment with aphidicolin (Sigma-Aldrich) for 16 h, washing 5 times with PBS (−), and addition of fresh culture media to release from cell-cycle arrest. For 15 h (every 3 h) after releasing, cells were collected and fixed with 70% ethanol, and then kept at 4° C. before use. Cells were incubated with 10 mg/mL RNaseI in PBS (−) at 37° C. for 30 min and stained with 50 μg of propidium iodide at room temperature for 30 min. Cell suspensions at each time point were analyzed with FACscan (Becton Dickinson, Franklin Lakes, N.J.).
To collect the G2/M arrested cells, 0.3 μg/mL of nocodazole (Sigma-Aldrich) was treated to culture media for the last 16 hours before collection.

PBK/TOPK [2] = assay: western blot of PBK/TOPK after nocodazole; conditions: T47D; 6 to 18 h
F3374 protein = assay: western blot of F3374 protein after siAURKB; conditions: T47D cells; vs siEGFP
Procedure: To detect the endogenous F3374 and AURKB proteins in breast cancer cell lines (HBC4, BT-549, HBC5, HBL100, HCC1937, MCF-7, MDA-MB-231, MDA-MB-453, SKBR3, and T47D, and ZR75-1) and human mammary gland epithelial cell (HMEC), cells were lysed in lysis buffer (50 mM Tris-HCl, pH 8.0/150 mM NaCl/0.5% NP-40) including 0.1% protease inhibitor cocktail III (Calbiochem, San Diego, Calif.). The amount of total protein was estimated by protein assay kit (Bio-Rad, Hercules, Calif.), and then proteins were mixed with SDS-sample buffer and boiled before loading at 10% SDS-PAGE gel. After electrophoresis, the proteins were blotted onto nitrocellulose membrane (GE Healthcare). After blocking with blocking solution (4% BlockAce; Dainippon Pharmaceutical. Co., Ltd, Osaka, Japan), membranes blotting proteins were incubated with anti-F3374 polyclonal antibody at 1:100 dilutions or anti-AURKB rabbit polyclonal antibody (abcam, Cambridge, UK) at 1:100 dilutions for detection of endogenous F3374 or AURKB protein. Finally the membrane was incubated with HRP conjugated-secondary antibody and protein-bands were visualized by ECL detection reagents (GE Healthcare). Beta-actin was examined to serve as a loading control. […]

Molecule: m#3: mismatch siRNA with 3-bp replacement in A7322 si-#3, 5′-AATATTCGATCTCTGCCACAC-3′ (SEQ ID NO: 36) (listed as DNA, chemistry not given here)
- growth of BT-549 and BT-474 cells (BT-549 and BT-474 cells): no suppressive effect
- expression level of A7322 (A7322): no suppressive effect

Molecule: CCn1cnc2c(Nc3cccc(Cl)c3)nc(N[C@@H]3CCCC[C@@H]3N)nc21 [CDK1 inhibitor, CGP74514A]
- phosphorylation level of the Rb protein at Ser807 and 811 (CDK1; 0 to 4 hours): decreased phosphorylation level
- phosphorylation of PP1α at Thr320 (CDK1; 0 to 4 hours): reduced phosphorylation
- phosphorylation of PBK/TOPK induced by G2/M arrest (CDK1; 0 to 4 hours after nocodazole 16 hours): diminished in time-dependent manner

Molecule: siF3374: siRNA oligonucleotide 5′-ACUCCUACGUUCUCUAUUA-3′ (SEQ ID NO: 65) targeting F3374 (listed as RNA, chemistry not given here)
- knockdown effect at the protein level (F3374) (F3374): significant knockdown effect
- morphological alterations: cell size (HBC4 cells): enlargement of the size of the cells
- morphological alterations: cytokinesis (HBC4 cells): appearance of the intercellular bridges between two separating-cells

Molecule: C=C1[C@@H](O)[C@@H]2O[C@]3(CC[C@H](/C=C/[C@@H](C)[C@@H]4CC(C)=C[C@@]5(O[C@H](C[C@@](C)(O)C(=O)O)CC[C@H]5O)O4)O3)CC[C@H]2O[C@@H]1[C@@H](O)C[C@H](C)[C@H]1O[C@@]2(CCCCO2)CC[C@H]1C [OA, okadaic acid]
- phosphorylation of PBK/TOPK (PBK/TOPK [1]; 100 nM for 9 hours): induced
- phosphorylation of PBK/TOPK (PBK/TOPK [1]; low concentration (less than 100 nM)): not

Molecule: COC(=O)Nc1nc2ccc(C(=O)c3cccs3)cc2[nH]1 [nocodazole]
- proportion of cells at the G2/M phase (T47D cells; 6 to 18 h): elevated
- cells synchronized at G2/M phase (T47D cells; treatment for 16 hours): 61-70%
- intensity of high-molecular (phosphorylated) band of endogenous PBK/TOPK (PBK/TOPK [2]): elevated in a time-dependent manner

Molecule: siAURKB: siRNA oligonucleotide 5′-AAGGUGAUGGAGAAUAGCAGU-3′ (SEQ ID NO: 66) targeting AURKB (listed as RNA, chemistry not given here)
- phosphorylated F3374 protein (F3374 protein): significant decrease
- total F3374 protein (F3374 protein): significant decrease
